Test results as given in PMC10248867, “Receptor-like cytoplasmic kinase ScRIPK in sugarcane regulates disease resistance and drought tolerance in Arabidopsis” (Frontiers in Plant Science, 2023).

Tests used:
Experiment in all cases: X-ray crystal structure, […] A
Assay type in all cases: binding
[1] = target: T1, ScRIPK-KD (ScRIPK kinase domain) (Saccharum hybrid cultivar, UniProt A0ACD6BAX3, S187A/T188A); details: crystallised in 0.1 M HEPES pH 7.5, 4.3 M sodium chloride, 291 K; active site
T1 construct: gene NCGR_LOCUS634; kinase domain 72-378 of 425 aa; PRSF-duet vector, Ni-NTA purified from E. coli BL21(DE3); wild type autophosphorylated at T250, S253, T254; one kinase domain per asymmetric unit
T1 sequence (A0ACD6BAX3 entry or part of it S187A/T188A): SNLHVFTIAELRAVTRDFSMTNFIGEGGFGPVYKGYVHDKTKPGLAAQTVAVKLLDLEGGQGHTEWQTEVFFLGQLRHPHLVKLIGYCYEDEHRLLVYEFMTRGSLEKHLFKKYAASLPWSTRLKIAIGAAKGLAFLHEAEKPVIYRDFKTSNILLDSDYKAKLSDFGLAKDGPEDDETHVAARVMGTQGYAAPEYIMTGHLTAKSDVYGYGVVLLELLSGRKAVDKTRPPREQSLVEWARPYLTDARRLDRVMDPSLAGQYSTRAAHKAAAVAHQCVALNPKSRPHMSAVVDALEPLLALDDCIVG

[2] = target: T2, ScRIPK-KD (ScRIPK kinase domain) (Saccharum hybrid cultivar, UniProt A0ACD6BAX3, K58R); details: crystallised in 0.1 M HEPES pH 7.5, 4.3 M sodium chloride, 291 K; active site
T2 construct: gene NCGR_LOCUS634; kinase domain 72-378 of 425 aa; PRSF-duet vector, Ni-NTA purified from E. coli BL21(DE3); wild type autophosphorylated at T250, S253, T254; one kinase domain per asymmetric unit
T2 sequence (A0ACD6BAX3 entry or part of it K58R): as the sequence (A0ACD6BAX3 entry or part of it S187A/T188A) above, with K53R, A182S, A183T counted along it

[3] = target: T3, ScRIPK-KD (ScRIPK kinase domain) (Saccharum hybrid cultivar, UniProt A0ACD6BAX3); details: Mg2+ bound; crystallised in 0.1 M HEPES pH 7.5, 40% v/v PEG 400, 291 K; active site
T3 construct: gene NCGR_LOCUS634; kinase domain 72-378 of 425 aa; PRSF-duet vector, Ni-NTA purified from E. coli BL21(DE3); wild type autophosphorylated at T250, S253, T254; one kinase domain per asymmetric unit
T3 sequence (A0ACD6BAX3 entry or part of it): as the sequence (A0ACD6BAX3 entry or part of it S187A/T188A) above, with A182S, A183T counted along it

Compound	X-ray crystal structure, 1.95 A [1]	X-ray crystal structure, 1.68 A [2]	X-ray crystal structure, 2.10 A [3]
Nc1ncnc2c1ncn2[C@@H]1O[C@H](COP(=O)(O)OP(=O)(O)O)[C@@H](O)[C@H]1O [ADP]	In the ScRIPK-KD S253A|T254A mutant structure, Y169 and E170–M172 formed a deep cavity	–	–
Nc1ncnc2c1ncn2[C@@H]1O[C@H](COP(=O)(O)OP(=O)(O)OP(=O)(O)O)[C@@H](O)[C@H]1O [ATP]	–	the mutant protein ScRIPK-KD K124R was purified and crystallized with ATP	The ScRIPK-ATP protein complex crystal was successfully obtained in the reservoir solution
